We go through 2 compounds from US20210220331A1, “INHIBITORS OF IRES-MEDIATED PROTEIN SYNTHESIS” (The Regents of the University of California, priority 2016, published 2021).

Data set [1] has as its system cyclin D1 or c-MYC mRNA association with eIF-4E. In words: eIF-4E immunoprecipitation and qRT-PCR of bound RNA. The data set is classed as cell-based. Particulars: LN229 cells, 50 nM. The procedure:
For immunopurification of eIF4E and bound RNA (21), cells were lysed in buffer containing 50 mM Tris-HCl (pH 7.4), 300 mM NaCl, 0.5% NP-40, 10 mM NaF, 1 mM sodium orthovanidate, 1 mM PMSF, 1.5% aprotinin and SUPERase-IN (ThermoFisher Scientific), 0.025 units/ml, using a Dounce homogenizer at 4° C. Extracts were cleared by centrifugation and immunoprecipitated with eIF4E or control IgG. Beads were washed and obtained RNA was subjected to quantitative RTPCR. For quantitative RT-PCR, extraction of RNA was performed using Trizol (ThermoFisher). Total RNA was then quantified and integrity assessed using an Agilent 2100 Bioanalyzer (Agilent Technology). Total RNA was reverse transcribed with random primers using the RETROscript Kit from ThermoFisher. SYBR Green quantitative PCR was performed in triplicate in 96-well optical plates on an ABI Prism 7000 Sequence Detection System (Life Technologies) according to the manufacturer's instructions. Primer sequences for CCND1, c-MYC and actin are available upon request. […]
(B) Schematic diagrams of the dicistronic constructs used in this study. […] Input and bound fractions were analyzed by immunoblotting using hnRNP A1 antibodies. […] Bound CCND1 or c-MYC RNAs were detected via RT-PCR. […]
In general terms: Real-time PCR tracks product formation cycle by cycle.

Data set [2] has as its system normal mature human neurons. Briefly: In vitro cytotoxicity in human neurons (trypan blue exclusion). It counts as cell-based. More on the design: dose or concentration left out as unconfirmed. The procedure: Within the series B and C analogs, IRES-J008, with a 4-methoxyphenyl substituent in place of the 2,4-dimethoxybenzyl unit, and to a lesser degree, IRES-J009, with an N1-methyluracil unit in place of the dichloromaleimide unit, inhibited cyclin D1 and c-MYC PP242-induced IRES activity. […] The in vitro cytotoxicities of these three analogs relative to C11 in human neurons were also determined. […] The reduced toxicity of the IRES-J007 versus C11 might possible be due to the lack of the quite reactive dichloromaleimide unit present in C11 which is absent in IRES-J007, or may be due to other factors.

The test system of data set [3] is actin mRNA. In words: Polysome analysis of xenografted LN229 tumors, actin mRNA. The settings on record: monotherapy.
Method: (§1) Cells were lysed in buffer containing 100 μg/ml cycloheximide at 4° C. Following removal of mitochondria and nuclei, supernatants were layered onto 15-50% sucrose gradients and centrifuged at 38,000 rpm for 2 h at 4° C. in an SW40 rotor (Beckman Instruments). Gradients were fractionated into 11 1-ml fractions using a density gradient fractionator (Brandel Instruments). The profiles of the gradients were monitored at 260 nm, and RNAs from individual fractions were pooled into a nonribosomal/monosomal pool and a polysomal pool. These RNAs (100 ng) were used in real time quantitative RT-PCR analysis for the indicated transcripts.
(§2) Tumor extracts were subjected to sucrose density gradient centrifugation, fractionated and pooled into nonribosomal, monosomal fraction (N, white bars) and a polysomal fraction (P, black bars). Purified RNAs were used in real-time qRT-PCR analysis to determine the distributions of cyclin D1, c-MYC and actin mRNAs across the gradients. […] Means and +S.D. values are shown for quadruplicate RT-PCR measurements. *, P<0.05.
(§3) Polysomes were separated via sucrose density gradient sedimentation and fractionated into heavy polysomal and nonribosomal/monosomal fractions.
For data set [4], the system named is c-MYC mRNA. Briefly: Polysome analysis of xenografted LN229 tumors, c-MYC mRNA.
Method: as §1, §2, §3

Consider `COc1ccc(CN2C(=O)C(Cl)=C(Cl)C2=O)c(OC)c1` [Compound C11, reference compound], for which, in data set [1], the “cyclin D1 or c-MYC mRNA association with eIF-4E” value was “did not affect”.
Turning to `COc1ccc(CN2C(=O)c3ccccc3C2=O)c(OC)c1` [IRES-J007, 2-((2,4-Dimethoxyphenyl)methyl)isoindoline-1,3-dione], the “cytotoxic effects on normal neurons” value in data set [2] was “no significant cytotoxic effects”. The “actin mRNA polysomal distribution / translational efficiency” value in data set [3] is listed as “unaffected”. Besides, the “c-MYC mRNA translational efficiency” value in data set [4] (IRES-J007 monotherapy) is “significant reduction”. Also, the “c-MYC mRNA polysomal” value in data set [4] (PP242 and IRES-J007 cotherapy) was 3%.
